Among the test systems are NCI-H226; SK-MEL-2; UACC-257; CCRF-CEM; CAKI-1; SNB-75; BT-549; HL-60; K562; MOLT-4; RPMI-8226; Hs-578T; PC-3; SF-295; NCI/ADR-RES; EKVX; RXF 393; SK-MEL-28; SK-MEL-5; HOP-62.
What all share (assay): NCI-60 cell line screen, 48 h

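Values below derive from 48-hour exposures of cells grown in 96-well plates, with endpoints linearly interpolated between the two concentrations bracketing the appropriate inhibition level. GI50 = concentration required for 50% inhibition of growth.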 Active and inactive are the calls of the source. Cut-off read from the data, not from the text of the source: active = GI50 up to about 1.1 µM and inactive = higher.

Experimental findings from ChEMBL document CHEMBL1201862, “PubChem BioAssay data set” (2004) are described below.

In the case of `C=C1CC(CNc2cc(Cl)nc(N)n2)C1`, the GI50 is 54.2 µM (inactive) in the assay on NCI-H226; > 100 µM (inactive) in the assay on SK-MEL-2; 39.6 µM (inactive) in the assay on UACC-257; > 100 µM (inactive) in the assay with CCRF-CEM; 74.5 µM (inactive) in the assay on CAKI-1; > 100 µM (inactive) in the assay with SNB-75. The GI50 in the assay with BT-549 is 77.3 µM (inactive); in the assay on HL-60 it was > 100 µM (inactive); with K562, 71.6 µM (inactive); with MOLT-4, > 100 µM (inactive); in the assay with RPMI-8226, 49.9 µM (inactive); with Hs-578T, 51.4 µM (inactive). The GI50 in the assay on PC-3 is > 100 µM (inactive); in the assay with SF-295, > 100 µM (inactive); in the assay with NCI/ADR-RES it was 62.7 µM (inactive); in the assay on EKVX, 23.1 µM (inactive); in the assay with RXF 393, 50.9 µM (inactive); in the assay on SK-MEL-28 it was > 100 µM (inactive). Further, the GI50 in the assay on SK-MEL-5 is 50.5 µM (inactive); with HOP-62, > 100 µM (inactive).

Regarding `C=CCOC(=O)[C@@H]1C[C@@H](OC(C)(C)C)CN1C(=O)[C@@H]1[C@H]2OC(C)(C)O[C@H]2CN1C(=O)OCC1c2ccccc2-c2ccccc21`, the GI50 in the assay on NCI-H226 was 21.5 µM (inactive); with SK-MEL-2, 32.2 µM (inactive); with UACC-257, 17.5 µM (inactive); with CCRF-CEM it was 16.6 µM (inactive); with CAKI-1 it was 4.88 µM (inactive); in the assay on SNB-75 it was 17.5 µM (inactive). Further, the GI50 with BT-549 is 20.1 µM (inactive); with HL-60 it was 11 µM (inactive); with K562, 11 µM (inactive); in the assay on MOLT-4, 15.6 µM (inactive); in the assay on RPMI-8226, 6.19 µM (inactive); in the assay with Hs-578T, 21.1 µM (inactive). For the same molecule, the GI50 is 15.7 µM (inactive) in the assay on PC-3; 17.9 µM (inactive) with SF-295; 3.68 µM (inactive) in the assay on NCI/ADR-RES; 5.05 µM (inactive) in the assay on EKVX; 10.2 µM (inactive) with RXF 393; 18.1 µM (inactive) in the assay on SK-MEL-28. Further, the GI50 with SK-MEL-5 was 18.9 µM (inactive); in the assay on HOP-62 it was 1.75 µM (inactive).

`CCOCc1nc2c(OC)c(-c3nc4ccc(N5CCN(C)CC5)cc4[nH]3)cc(OC)c2[nH]1`: the GI50 was 31.9 µM (inactive) in the assay on NCI-H226; 20.6 µM (inactive) in the assay on SK-MEL-2; 19 µM (inactive) in the assay on UACC-257; 12.7 µM (inactive) in the assay with CCRF-CEM; 27.6 µM (inactive) in the assay with CAKI-1; 28.9 µM (inactive) with SNB-75. For the same molecule, the GI50 with BT-549 is 66.4 µM (inactive); with HL-60 it was 4.39 µM (inactive); with K562, 35.6 µM (inactive); in the assay on MOLT-4 it was 31.2 µM (inactive); in the assay on RPMI-8226, 40.1 µM (inactive); in the assay on Hs-578T, 34.2 µM (inactive). Also, the GI50 with PC-3 is 63.4 µM (inactive); in the assay with SF-295, 21 µM (inactive); in the assay with NCI/ADR-RES, > 100 µM (inactive); with EKVX, > 100 µM (inactive); with RXF 393, 16 µM (inactive); in the assay on SK-MEL-28, 18.6 µM (inactive). The GI50 in the assay on SK-MEL-5 was 17.5 µM (inactive); with HOP-62 it was 25.6 µM (inactive).

For `CCOc1ccccc1/N=C\c1c2ccccc2cc2ccccc12`, the GI50 is 46.5 µM (inactive) in the assay on NCI-H226; 22.1 µM (inactive) in the assay on SK-MEL-2; 31.1 µM (inactive) with UACC-257; 9.29 µM (inactive) in the assay on CCRF-CEM; 24.2 µM (inactive) with CAKI-1; 19.5 µM (inactive) in the assay with SNB-75. The GI50 with BT-549 was 28.2 µM (inactive); with HL-60, 16 µM (inactive); in the assay on K562, 17.3 µM (inactive); in the assay with MOLT-4, 11.6 µM (inactive); with RPMI-8226, 15.5 µM (inactive); in the assay on Hs-578T, 15.3 µM (inactive). Besides, the GI50 is 23.3 µM (inactive) with PC-3; 30 µM (inactive) in the assay on SF-295; 23.1 µM (inactive) in the assay on NCI/ADR-RES; 18.1 µM (inactive) in the assay with EKVX; 15.7 µM (inactive) in the assay with RXF 393; 26.2 µM (inactive) in the assay on SK-MEL-28. The GI50 in the assay with SK-MEL-5 is 25.6 µM (inactive); in the assay on HOP-62, 26.1 µM (inactive).

With `O=c1c2ccccc2c2ccccc2c(=O)n1Cc1ccc2c(c1)OCO2`, the GI50 was 56.1 µM (inactive) in the assay with NCI-H226; 39.7 µM (inactive) in the assay on SK-MEL-2; 57.1 µM (inactive) in the assay with UACC-257; 19.1 µM (inactive) in the assay on CCRF-CEM; 69.7 µM (inactive) in the assay on CAKI-1; 42.7 µM (inactive) in the assay with SNB-75. Moreover, the GI50 with BT-549 is 20.9 µM (inactive); in the assay on HL-60, 11.4 µM (inactive); in the assay on K562 it was 7.45 µM (inactive); in the assay on MOLT-4, 12.9 µM (inactive); in the assay on RPMI-8226, 15.9 µM (inactive); in the assay with Hs-578T, 37.9 µM (inactive). The GI50 with PC-3 was 42.8 µM (inactive); in the assay on SF-295, 35.4 µM (inactive); with NCI/ADR-RES, 24.9 µM (inactive); in the assay on EKVX it was 36.1 µM (inactive); in the assay on RXF 393, 36 µM (inactive); with SK-MEL-28, 56.6 µM (inactive). Also, the GI50 in the assay on SK-MEL-5 was 20.3 µM (inactive); with HOP-62, 62.1 µM (inactive).

For `OC(C1CCCC1=N/N=C1/CCCC1C(O)(C(F)(F)Cl)C(F)(F)Cl)(C(F)(F)Cl)C(F)(F)Cl` (stereo not given), the GI50 with NCI-H226, with SK-MEL-2, with UACC-257, with CCRF-CEM, in the assay with CAKI-1 and in the assay on SNB-75 was > 10 µM (inactive) throughout. Besides, the GI50 with BT-549, with HL-60, with K562, in the assay on MOLT-4, in the assay with RPMI-8226 and with Hs-578T was > 10 µM (inactive) each time. Further, the GI50 with PC-3, with SF-295, with NCI/ADR-RES, in the assay on EKVX, with RXF 393 and in the assay with SK-MEL-28 was > 10 µM (inactive) each time. Also, the GI50 in the assay with SK-MEL-5 and in the assay with HOP-62 was > 10 µM (inactive) each time.

`Cc1cc2nc(-c3c(F)cccc3F)n(Cc3c(F)cccc3F)c2cc1C`: the GI50 in the assay on NCI-H226 is 15.7 µM (inactive); with SK-MEL-2, 15.8 µM (inactive); in the assay with UACC-257 it was 16.1 µM (inactive); in the assay with CCRF-CEM, 22.7 µM (inactive); in the assay on CAKI-1, 15.2 µM (inactive); in the assay with SNB-75 it was 3.37 µM (inactive). In addition, the GI50 is 13.2 µM (inactive) with BT-549; 16.3 µM (inactive) in the assay on HL-60; 11 µM (inactive) in the assay on K562; 13.1 µM (inactive) with MOLT-4; 5.28 µM (inactive) in the assay on RPMI-8226; 19.2 µM (inactive) with Hs-578T. Also, the GI50 with PC-3 was 15.7 µM (inactive); in the assay with SF-295 it was 13.4 µM (inactive); with NCI/ADR-RES, 18.5 µM (inactive); in the assay with EKVX, 8.24 µM (inactive); with RXF 393, 23.2 µM (inactive); in the assay with SK-MEL-28, 16.6 µM (inactive). Also, the GI50 is 13.6 µM (inactive) in the assay with SK-MEL-5 and 14.4 µM (inactive) in the assay with HOP-62.

As to `COC(=O)[C@]1(c2cc3ccccc3n2S(=O)(=O)c2ccccc2)CC2CN(C(C)=O)C1CC2=O` (stereo not given in full), the GI50 in the assay on NCI-H226 is 2.17 µM (inactive); with SK-MEL-2, 2.77 µM (inactive); in the assay on UACC-257, 2.77 µM (inactive); with CCRF-CEM, 0.637 µM (active); in the assay with CAKI-1, 2.68 µM (inactive); in the assay on SNB-75 it was 3.15 µM (inactive). In addition, the GI50 in the assay on BT-549 is 2.61 µM (inactive); in the assay with HL-60, 1.34 µM (inactive); with K562, 1.98 µM (inactive); in the assay with MOLT-4 it was 0.855 µM (active); in the assay on RPMI-8226, 0.65 µM (active); with Hs-578T it was 5.94 µM (inactive). For the same molecule, the GI50 was 1.64 µM (inactive) in the assay with PC-3; 12.6 µM (inactive) with SF-295; 2.87 µM (inactive) with NCI/ADR-RES; 2.02 µM (inactive) with EKVX; 1.77 µM (inactive) with RXF 393; 3.94 µM (inactive) with SK-MEL-28. For the same molecule, the values for the GI50 in the assay on SK-MEL-5 and in the assay on HOP-62 were 3.27 µM (inactive) and 5.08 µM (inactive), respectively.

For the molecule `COC(=O)Nc1nc2cc(S(=O)(=O)Nc3ccccn3)ccc2[nH]1`, the GI50 in the assay with NCI-H226 was 36.3 µM (inactive); with SK-MEL-2, > 100 µM (inactive); in the assay with UACC-257, 17.7 µM (inactive); in the assay on CCRF-CEM it was 26.1 µM (inactive); with CAKI-1, 47 µM (inactive); with SNB-75 it was 22.6 µM (inactive). Also, the GI50 in the assay on BT-549 was 30.9 µM (inactive); in the assay with HL-60 it was 10.8 µM (inactive); with K562, 25.7 µM (inactive); with MOLT-4 it was 25.5 µM (inactive); in the assay with RPMI-8226, 14 µM (inactive); in the assay with Hs-578T, 35.6 µM (inactive). Moreover, the GI50 in the assay with PC-3 is 65.8 µM (inactive); in the assay on SF-295 it was 49.7 µM (inactive); with NCI/ADR-RES it was 34.1 µM (inactive); in the assay with EKVX, > 100 µM (inactive); with RXF 393, 39.6 µM (inactive); with SK-MEL-28, 14.4 µM (inactive). For the same molecule, the figures for the GI50 with SK-MEL-5 and with HOP-62 were 42.1 µM (inactive) and 73.3 µM (inactive), respectively.

`CC1=NN(c2ccc(S(=O)(=O)O)cc2)C2(C1)C(Cl)C(=O)N2c1nc2ccccc2s1` (stereo not given): the GI50 is 21.4 µM (inactive) in the assay on NCI-H226; 92.5 µM (inactive) in the assay on SK-MEL-2; > 100 µM (inactive) in the assay on UACC-257; > 100 µM (inactive) in the assay on CCRF-CEM; > 100 µM (inactive) in the assay on CAKI-1; > 100 µM (inactive) in the assay with SNB-75. Moreover, the GI50 in the assay with BT-549, in the assay on HL-60, in the assay with K562, with MOLT-4, in the assay with RPMI-8226 and in the assay with Hs-578T was > 100 µM (inactive) each time. In addition, the GI50 is > 100 µM (inactive) in the assay with PC-3; > 100 µM (inactive) in the assay with SF-295; > 100 µM (inactive) with NCI/ADR-RES; 55.7 µM (inactive) in the assay on EKVX; > 100 µM (inactive) in the assay on RXF 393; > 100 µM (inactive) in the assay with SK-MEL-28. For the same molecule, the GI50 was > 100 µM (inactive) with SK-MEL-5 and 91.2 µM (inactive) in the assay on HOP-62.
